Several values for one entry are separate records, joined by “and”; a condition that tells them apart may be missing. Equal entries are not always repeated.
How the values were obtained:
trichomonal hydrolases [1] = assay: Experiment 13: hydrolysis of peptide substrates by trichomonal hydrolases at low pH in vaginal fluid supernatant; format: biochemical, Trichomonas vaginalis; set-up: key: −: No red color produced; +: Clearly visible red color produced; ++: Moderately intense red color produced; +++: Very intense red color produced; settings: Fast Garnet
Description: Forty μL of each substrate was pipetted into duplicate wells of a microtiter plate. The plate was covered with tape, placed into a 25° C. incubator, and allowed to warm. A diluted enzyme mixture was prepared by mixing one part (v/v) freshly-thawed trichomonal hydrolase solution to nine parts 2 mM L-cysteine solution. Forty μL of this mixture was added to one well of each pair of duplicate wells. For negative controls, 40 μL of 2 mM L-cysteine was added to the second well in each pair of duplicate wells. The plate was returned to the incubator and incubated for ten minutes. Forty μL of SDS/acetate solution was added to each well, followed by 40 μL of Fast Garnet solution. The intensity of color that developed in each well after five minutes was visually scored using the color scale presented in Table 13.1.
Of the nine substrates hydrolyzed by trichomonal hydrolases to produce an intense pink color (scoring ++ or +++) in the absence of vaginal fluid supernatant, only four produced intense pink color when vaginal fluid supernatant was present.

trichomonal hydrolases [2] = assay: Experiment 13: hydrolysis of peptide substrates by trichomonal hydrolases at low pH, no vaginal fluid; format: biochemical, Trichomonas vaginalis; set-up: key: −: No red color produced; +: Clearly visible red color produced; ++: Moderately intense red color produced; +++: Very intense red color produced; settings: without vaginal fluid; threonine buffer pH 2.4; 2 mM substrate solution; 10 min 25° C.; Fast Garnet
Method in brief: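 Peptide substrates incubated in duplicate for 10 min at 25° C. with trichomonal hydrolase diluted 1:9 in 2 mM L-cysteine; negative controls received L-cysteine alone. SDS/acetate and Fast Garnet added, and color visually scored after 5 min on a color scale.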

trichomonal hydrolases [3] = assay: Experiment 14: substrate comparison on swabs with vaginal fluid plus trichomonal hydrolases at low pH; format: biochemical, Trichomonas vaginalis; settings: threonine pH 2.4, 0-9 scale
Description: For each pair of vaginal fluid specimens from a donor, one swab was rubbed on one substrate film and the other swab was rubbed on a different substrate film; two substrates were compared at a time. The concentrations of the substrates varied from 150 mM to 320 mM in the solutions used to make the substrate films, but each specific comparison matched equimolar concentrations of substrates (as specified in Tables 14.1, 14.2, and 14.3 below). In the swabs, the substrate was diluted by vaginal fluid and buffer, and the final concentration of substrate in the swab tip was estimated to be 1/60 of the concentration of substrate in the solutions used to make the films. Immediately after each swab was rubbed on a substrate film, a 35-μL drop of threonine buffer was applied to the plastic where the substrate film had been, and the swab was rubbed on the same spot again until the buffer was absorbed into the swab. The swabs were left lying on the plastic for ten minutes, then each swab was rubbed on a Fast Red or Fast Garnet film. For the comparisons between ZLR and ZVR, and between VLR-MNA and ZRRR-MNA, films made with 10 mM Fast Garnet were used; for the comparison between ZVR and VLR-MNA, films made with 70 mM Fast Red were used. The intensity of pink color that developed on each swab after two minutes was visually scored using the 0-9 color scale presented in Table 11.1 above; fractional scores such as 1.3 were used when color intensities between swabs differed only slightly. In this part of the experiment, 20 μL of trichomonal hydrolases was applied to the tip of each swab containing vaginal fluid just prior to running the assay. Otherwise, the procedure was exactly the same as for the swabs containing only vaginal fluid.

trichomonal hydrolases [4] = assay: Experiment 11: hydrolysis of ZRRR-MNA by trichomonal hydrolases at pH 1.9-3.4, read on swab; format: biochemical, Trichomonas vaginalis; settings: Fast Red RL, 0-9 scale
Description: The 200 mM ZRRR-MNA solution was mixed with 25% hydroxypropylcellulose solution and additional ethanol to a final concentration of 80 mM ZRRR-MNA and 5% hydroxypropyl-cellulose. Substrate films were made by pipetting 1 μL of a mixture over a circular area approximately ¼-inch in diameter on a sheet of Mylar, and drying under a stream of dry nitrogen. An 80-μL aliquot of a malic acid buffer solution, at each pH listed above, was pipetted into each of eight separate round-bottom wells on a microtiter plate. Eighty μL of 10% trichomonal hydrolase solution was added to each well and mixed thoroughly. Half of the volume in each well (80 μL) was then transferred to a second set of eight wells, into which the swabs were then inserted. After the 80 μL of liquid was absorbed from each well into the respective swab, each swab was rubbed on a substrate film. Ten minutes after the swabs were exposed to substrate, each swab was rubbed on an indicator (Fast Red) film. The intensity of pink color that developed on each swab after one minute was visually scored in 0.5 unit increments using the 0-9 color scale presented in Table 11.1 below. To determine the final pH of the eight mixtures of trichomonal hydrolases and buffer, the pH of the liquid remaining in the first set of eight wells was measured using a pH meter. The experiment was repeated omitting the lowest pH and highest pH wells.

trichomonal hydrolases [5] = assay: Experiment 17: effect of amount of VLR-MNA on color produced by trichomonal hydrolases on swabs; format: biochemical, Trichomonas vaginalis; settings: 0-9 scale
Description: Solution A, containing 10% v/v trichomonal hydrolases and 2 mM L-cysteine, was prepared by mixing 20 μL of trichomonal hydrolases with 4 μl of 100 mM L-cysteine and 176 μL of water, and Solution B, containing 20% v/v trichomonal hydrolases, 5% v/v normal vaginal fluid supernatant and 2 mM L-cysteine, was prepared by mixing 40 μL of trichomonal hydrolases with 10 μL of normal vaginal fluid supernatant, 4 μL of 100 mM L-cysteine and […]. Several 35 μL drops each of Solution A, Solution B, and threonine buffer were individually pipetted onto discrete, separated areas on a sheet of Mylar. Individual cotton swabs were rubbed on a drop of either Solution A or Solution B, then on one, two or three dots of substrate, and then on a drop of buffer. After ten minutes, each swab was rubbed on an indicator film. The intensity of pink color that developed on each swab after thirty seconds was visually scored in 0.5 unit increments using the 0-9 color scale presented in Table 11.1.

[6] = system: endogenous hydrolases present in normal vaginal fluid; assay: Experiment 14: substrate comparison on swabs with normal vaginal fluid at low pH; format: biochemical, human; set-up: key: 0: Colorless or yellow - no pink color; trace: Peach or orange; 1: Faint pink; 2-8: Intermediate intensities of pink; 8: Very intense pink/red; settings: Normal (n = 3); 150 mM substrate film solution; threonine pH 2.4; Fast Red; 0-9 scale
Description: Mixtures were made of the 400 mM substrate stock solutions, 25% hydroxy-propylcellulose solution, 200 mM L-cysteine, along with additional ethanol to a final concentration of 150-320 mM substrate, 20 mM L-cysteine, and 2-5% hydroxypropyl-cellulose. Substrate films were made by pipetting 1 μL of a mixture over a circular area approximately […] in diameter on a sheet of Mylar, and drying under a stream of dry nitrogen. The dried films were stored in a container with desiccant until used.
For each pair of vaginal fluid specimens from a donor, one swab was rubbed on one substrate film and the other swab was rubbed on a different substrate film; two substrates were compared at a time. The concentrations of the substrates varied from 150 mM to 320 mM in the solutions used to make the substrate films, but each specific comparison matched equimolar concentrations of substrates (as specified in Tables 14.1, 14.2, and 14.3 below). […] The intensity of pink color that developed on each swab after two minutes was visually scored using the 0-9 color scale presented in Table 11.1 above; fractional scores such as 1.3 were used when color intensities between swabs differed only slightly.

[7] = Hydrolases added (n = 5), 200 mM substrate film solution, Fast Garnet
[8] = Hydrolases added (n = 2), 150 mM substrate film solution, Fast Red

SMILES | Color Score (trichomonal hydrolases [1]) | Color Score (trichomonal hydrolases [2]) | Color Score (trichomonal hydrolases [3]; [7]) | Color Scores (trichomonal hydrolases [4]; malic acid pH 1.3 / final pH in wells 1.9) | Color Scores (trichomonal hydrolases [4]; malic acid pH 1.6 / final pH 2.1, 1st experiment and duplicate) | Color Scores (trichomonal hydrolases [4]; malic acid pH 1.9 / final pH 2.3, 1st experiment and duplicate) | Color Scores (trichomonal hydrolases [4]; malic acid pH 2.2 / final pH 2.4, 1st experiment and duplicate) | Color Scores (trichomonal hydrolases [4]; malic acid pH 2.5 / final pH 2.6, 1st experiment and duplicate) | Color Scores (trichomonal hydrolases [4]; malic acid pH 2.8 / final pH 2.9, 1st experiment and duplicate) | Color Scores (trichomonal hydrolases [4]; malic acid pH 3.1 / final pH 3.2, 1st experiment and duplicate) | Color Scores (trichomonal hydrolases [4]; malic acid pH 3.4 / final pH 3.4) | Color Score (trichomonal hydrolases [3]; [8]) | Color Score (trichomonal hydrolases [5]; Solution A (10% trichomonal hydrolases, no vaginal fluid), One dot of Substrate) | Color Score (trichomonal hydrolases [5]; Solution A, Three dots of Substrate) | Color Score (trichomonal hydrolases [5]; Solution A, Two dots of Substrate) | Color Score (trichomonal hydrolases [5]; Solution B (20% trichomonal hydrolases, 5% normal vaginal fluid supernatant), One dot of Substrate) | Color Score (trichomonal hydrolases [5]; Solution B, Three dots of Substrate) | Color Score (trichomonal hydrolases [5]; Solution B, Two dots of Substrate) | Color Score [6] | Color Score (trichomonal hydrolases [3]; Hydrolases added (n = 4), 320 mM substrate film solution, Fast Garnet)
CC(=O)O.COc1cc(NC(=O)[C@H](CCCN=C(N)N)NC(=O)[C@H](CCCN=C(N)N)NC(=O)[C@H](CCCN=C(N)N)NC(=O)OCc2ccccc2)cc2ccccc12 [ZRRR-MNA, CBZ-Arg-Arg-Arg-MNA] | ++ | +++ | 1 to 4 | 2 | 4.5 | 5 | 5.5 and 6 | 5.5 and 5 | 5 and 3.5 | 4.5 and 3 | 3 |  |  |  |  |  |  |  |  | 
COc1cc(NC(=O)C(CCCN=C(N)N)NC(=O)C(CC(C)C)NC(=O)C(N)C(C)C)cc2ccccc12 [VLR-MNA, D-Val-Leu-Arg-MNA] | +++ | +++ | 1 to 4 |  |  |  |  |  |  |  |  | 2 to 2.5 | 5.5 | 9 | 7 | 2.5 | 5.5 | 4 | 0 | 
COc1cc(NC(=O)[C@H](CCCNC(=N)N)NC(=O)[C@@H](NC(=O)OCc2ccccc2)C(C)C)cc2ccccc12 [ZVR, CBZ-Val-Arg-MNA] | ++ | +++ |  |  |  |  |  |  |  |  |  | 4.5 to 5 |  |  |  |  |  |  | 2.5 to 3 | 1 to 5
